Measurements reported in article PMC8216263 (Pharmaceutical Biology, 2021).
Where two headings read alike, the source gives them in different places.

Assay: Single- and multiple-dose plasma pharmacokinetics of GA and PCA after oral RLQ in healthy subjects
Assay type: in vivo, human
Conditions: for AUC(0-inf) / AUC(0-t) / Vd/F / k el / half-life: 8 g; for Vd/F: read-out: Vz/F; for k el: read-out: ke (converted)
Description: The study protocol was approved by the Ethics Committee of the Second Affiliated Hospital of Tianjin University of Traditional Chinese Medicine. […] Subjects were offered standard meals at 4 and 10 h after dosing. Water was not permitted during the hour before and the hour after dosing, except for 240 mL administered with dosing; additional water intake was allowed at all other times.
In the single-dose study, 8 g of RLQ was administered orally on day 1. A 7-d washout time was designed between single-dose and multiple-dose pharmacokinetic studies. In the multiple-dose study, subjects received multiple doses of RLQ (8 g, t.i.d.) for seven consecutive days from day 8 to day 14 and a single dose of RLQ (8 g) on the morning of day 15. […] Additional pre-dose samples were collected in the morning on days 12, 13 and 14. […] All samples were stored at −80 °C until analysis.
All analytes were extracted from plasma and urine samples by simple protein precipitation extraction method using acetonitrile. Briefly, 5 µL of internal standard solution and 300 μL of acetonitrile were added to the spiked blank matrix (100 μL) and vortexed for 3 min and then centrifuged at 13,000 × g for 10 min. The supernatant was transferred and dried using a flow of nitrogen. The residue was re-dissolved in 100 µL of 10% methanol solution containing 0.1% formic acid. An aliquot of 5 µL solution was injected into the LC-MS/MS system for analysis.
The chromatographic separation was performed on an Acquity Ultra Performance LC instrument (Waters, Milford, MA) with a gradient programme in an ACQUITY UPLC BEH C18 column (2.1 mm × 100 mm, 1.7 μm). […] The injection volume was 2 µL. The mass spectrometry analysis was performed on an AB Sciex Triple Quad 5500 MS (Framingham, MA) equipped with an ESI source.
The peak plasma concentration (Cmax) and time to reach the peak plasma concentration (Tmax) were calculated from the actual plasma concentration data. The area under the plasma concentration-time curve from zero to the last measurable concentration (AUC0–t) was calculated via the linear trapezoidal rule. AUC0–∞ was calculated using the following formula: AUC0–∞ = AUC0–t + Ct/ke, where Ct is the last plasma concentration measured. […] The accumulation index was calculated as AUCss/AUC0–t.

[1] = both sexes, human, plasma, oral, human plasma, multiple dose RLQ 8 g
[2] = both sexes, human, plasma, oral, human plasma, multiple dose RLQ 8 g, read-out: AUC0–t
[3] = both sexes, human, plasma, oral, human plasma, single dose RLQ 8 g
[4] = both sexes, human, plasma, oral, human plasma, single dose RLQ 8 g, read-out: AUC0–t
[5] = both sexes, human, plasma, oral, multiple dose RLQ 8 g
[6] = both sexes, human, plasma, oral, multiple dose RLQ 8 g, read-out: t1/2 (converted)
[7] = both sexes, human, plasma, oral, single dose RLQ 8 g
[8] = both sexes, human, plasma, oral, single dose RLQ 8 g, read-out: t1/2 (converted)
[9] = both sexes, human, plasma, oral, single dose RLQ 8 g, median (range), read-out: tmax
[10] = both sexes, human, plasma, po, abstract summary, oral RLQ, read-out: half-life
[11] = both sexes, oral, human plasma, multiple dose RLQ 8 g t.i.d. 7 d then single dose, means ± SD, read-out: Cmax
[12] = both sexes, human plasma, single oral dose RLQ 8 g, means ± SD, read-out: Cmax
[13] = human, plasma, oral, single dose RLQ 8 g, female subjects n = 6, read-out: Cmax in women
[14] = human, plasma, oral, single dose RLQ 8 g, male subjects n = 6, read-out: Cmax in men
[15] = multiple dose RLQ 8 g, median (range)

Row | Structure (SMILES) | time to absorption into the blood after administration (abstract summary, oral RLQ) | AUC(0-inf) [1] | AUC(0-t) [2] | AUC(0-inf) [3] | AUC(0-t) [4] | Vd/F [5] | k el [5] | half-life [6] | Vd/F [7] | k el [7] | half-life [8] | tmax [9] | half-life [10] | Cmax [11] | Cmax [12] | Cmax [13] | Cmax [14] | CL/F (multiple dose RLQ 8 g) | tmax [15] | CL/F (single dose RLQ 8 g) | other results
1 | O=C(O)c1cc(O)c(O)c(O)c1 [GA, gallic acid] | ≤ 1 h | 209 ± 63.5 ng·h/mL | 205 ± 62.8 ng·h/mL | 256 ± 74.9 ng·h/mL | 251 ± 74.4 ng·h/mL | 292 ± 113 L | 0.00015 s⁻¹ | 80.4 ± 19.2 min | 241 ± 82.7 L | 0.000147 s⁻¹ | 82.2 ± 22.2 min | 45 min | < 120 min | 118 ± 39.5 ng/mL | 139 ± 49.4 ng/mL | 176 ng/mL | 102 ng/mL | 152 ± 51.6 L/h | 0.75 (0.75, 1) h | 124 ± 42.0 L/h | AUC(0-t) (female, human, plasma, oral, single dose RLQ 8 g, female subjects, read-out: AUC0–t in women): 301 ± 46.3 ng·h/mL; AUC(0-t) (male, human, plasma, oral, single dose RLQ 8 g, male subjects, read-out: AUC0–t in men): 201 ± 63.3 ng·h/mL; Vz/F and CL/F, females versus males (p < 0.05): significantly lower levels in females than in males
2 | O=C(O)c1ccc(O)c(O)c1 [PCA, protocatechuic acid] | ≤ 1 h | 3.09 ± 0.9 ng·h/mL | 2.81 ± 0.81 ng·h/mL | 3.64 ± 1.35 ng·h/mL | 3.2 ± 1.17 ng·h/mL | 139 ± 46.1 L | 0.000789 s⁻¹ | 15.6 ± 4.8 min | 158 ± 101 L | 0.000672 s⁻¹ | 19.8 ± 8.4 min | 19.8 min | < 120 min | 5.45 ± 1.58 ng/mL | 6.06 ± 2.28 ng/mL | 7.58 ng/mL | 4.54 ng/mL | 379 ± 119 L/h | 0.33 (0.17, 0.5) h | 337 ± 135 L/h | response in human plasma and urine samples (LC-MS/MS after oral RLQ): relatively high response; accumulation ratio (AUCss/AUC0–t) (after multiple doses, median (range)): 1.04 (0.56–1.51)
